How the values were obtained:
[1] = molecular target: T1, hGPR119 (Homo sapiens, UniProt Q8TDV5); experiment: In vitro cyclic AMP assay (Cisbio HTRF) in CHO-hGPR119 cells; format: cell-based; settings: cAMP; for activation at 1 µM: 1 h, 60 min, read-out: Induction (% induction at 1 μM)
T1 construct: expressed in transfected cells; host or cells: CHO cells (CHO-hGPR119)
T1 sequence (Q8TDV5 1-335): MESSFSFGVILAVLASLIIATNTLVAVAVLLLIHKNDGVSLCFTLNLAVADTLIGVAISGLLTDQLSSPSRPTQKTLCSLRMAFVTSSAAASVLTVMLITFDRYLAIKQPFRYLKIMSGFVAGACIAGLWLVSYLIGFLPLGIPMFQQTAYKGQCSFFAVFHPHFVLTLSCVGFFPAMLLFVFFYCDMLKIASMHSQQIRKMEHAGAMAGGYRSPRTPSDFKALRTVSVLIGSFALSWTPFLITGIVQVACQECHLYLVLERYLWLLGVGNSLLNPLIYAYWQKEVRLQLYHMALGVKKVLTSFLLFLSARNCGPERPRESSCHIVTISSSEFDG
How it was run: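 Cells plated at 5000/well and exposed to test compound dose series for 60 min at room temperature with 1 mM IBMX and 0.5% DMSO (final). Lysis with anti-cAMP antibody/d2-cAMP detection reagents, 1 h at room temperature; HTRF read at 665/620 nm (337 nm excitation); EC50 from concentration-response.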

[2] = tested on: Male C57BL/6 mice; experiment: Oral glucose tolerance test in C57BL/6 mice; format: in vivo; settings: 3 mpk and 10 mpk oral
Protocol: (§1) Male C57BL/6 mice (8-10 weeks) were grouped based on basal glucose levels and animals were fasted for 16 hours. Glucose level of each animal was estimated in blood collected from tail vein before animals were dosed orally with 0.5% Tween 80 and 0.5% NaCMC (vehicle control) and compounds at 3 and 10 mpk (n=5). After 30 minutes of compound dosing, blood glucose was again estimated and 2 g/kg/10 ml (20%) of Glucose solution was administered orally to all the animals. Blood glucose was estimated at 15, 30, 60, 90 and 120 minutes time points after glucose administration. Accu-Check active blood glucose meter was utilised for estimation of blood from tail vein.
Glucose reduction observed in animals treated with compounds of present invention is represented in terms of % AUC reduction. A greater glucose reduction in oral glucose tolerance test indicates the compound's efficacy in this rodent species.

[3] = tested on: Male SD rats; experiment: Oral glucose tolerance test in Sprague-Dawley rats; format: in vivo; settings: 3 mpk and 10 mpk oral
Protocol: as §1, with “SD rats” for “C57BL/6 mice”
Glucose reduction observed in animals treated with GPR119 agonists is represented in terms of % AUC reduction. A greater glucose reduction in oral glucose tolerance test indicates the compound's efficacy in this rodent species.

| Compound | activation at 1 µM [1] [%] | glucose reduction (% AUC reduction) in oral glucose tolerance test [2] | glucose reduction (% AUC reduction) in oral glucose tolerance test [3] | EC50 ([1]; class symbols, legend not given) |
| --- | --- | --- | --- | --- |
| CC(C)OC(=O)N1CCC(C(C)Oc2nn3cc(-c4ccc(S(C)(=O)=O)cc4F)nc3s2)CC1 (stereo not shown) [Compound 1101, Isopropyl 4-(1-(6-(2-fluoro-4-(methylsulfonyl)phenyl)imidazo[2,1-b][1,3,4]thiadiazol-2-yloxy)ethyl)piperidine-1-carboxylate] | 84 | significant dose dependent glucose reduction | significant dose dependent glucose reduction | – |
| CC(C)OC(=O)N1CCC([C@H](C)Oc2nn3cc(-c4ccc(S(C)(=O)=O)cc4F)nc3s2)CC1 [Compound 1108, isopropyl 4-((S)-1-(6-(2-fluoro-4-(methylsulfonyl)phenyl)imidazo[2,1-b][1,3,4]thiadiazol-2-yloxy)ethyl)piperidine-1-carboxylate] | 70 | significant dose dependent glucose reduction | significant dose dependent glucose reduction | A++ |
| CNS(=O)(=O)c1ccc(-c2cn3nc(OC(C)C4CCN(c5nc(C(C)C)no5)CC4)sc3n2)c(F)c1 (stereo not shown) [Compound 1109, 3-fluoro-4-(2-(1-(1-(3-isopropyl-1,2,4-oxadiazol-5-yl)piperidin-4-yl)ethoxy)imidazo[2,1-b][1,3,4]thiadiazol-6-yl)-N-methylbenzenesulfonamide] | 55 | significant dose dependent glucose reduction | significant dose dependent glucose reduction | – |
